Assay results as given in publication PMC8815882, “Screening the pandemic response box identified benzimidazole carbamates, Olorofim and ravuconazole as promising drug candidates for the treatment of eumycetoma” (PLoS Neglected Tropical Diseases, 2022).
Converted amounts (≈) assume the structure as drawn. Where two headings read alike, the source gives them in different places. Values belong to the compound of their own block, whether it stands above or below them.

How the values were obtained:
Type in all cases: cell-based, Madurella mycetomatis
[1] = tested on: M. mycetomatis genome strain MM55; assay: CLSI M38-A2 based in vitro susceptibility screening (XTT or resazurin), growth at fixed concentration; details: Madurella mycetomatis; for Percent fungal survival at 100 µM: replicate 2, M. mycetomatis MM55, read-out: Percentage survival at 100um, 100 uM A (second replicate column)
[2] = tested on: M. mycetomatis MM55; assay: IC50 determination, 2-fold dilution series 16 to 0.03125 μM; details: for IC50 / IC90: Madurella mycetomatis
[3] = tested on: ten different M. mycetomatis isolates; assay: MIC / MIC50 determination (XTT) in ten M. mycetomatis isolates; details: Madurella mycetomatis
[4] = MM55, mean of replicates, read-out: IC50 mean
[5] = MM55, replicate 1, read-out: IC50 1 um
[6] = MM55, replicate 2, read-out: IC50 2 um
[7] = MM55, replicate 3, read-out: IC50 3 um
[8] = 25 uM, mean of three, M. mycetomatis MM55, read-out: Percentage survival at 25um, 25 uM mean
[9] = 25 uM, replicate A, M. mycetomatis MM55, read-out: Percentage survival at 25um, 25 um A
[10] = 25 uM, replicate B, M. mycetomatis MM55, read-out: Percentage survival at 25um, 25 uM B
[11] = 25 uM, replicate C, M. mycetomatis MM55, read-out: Percentage survival at 25um, 25 uM C
[12] = mean of three, M. mycetomatis MM55, read-out: Percentage survival at 100um, 100 uM mean
[13] = replicate 1, M. mycetomatis MM55, read-out: Percentage survival at 100um, 100 uM A (first replicate column)
[14] = replicate 3, M. mycetomatis MM55, read-out: Percentage survival at 100um, 100 uM A (third replicate column)
[15] = MM55, replicate 1, read-out: IC90 1 um
[16] = MM55, replicate 2, read-out: IC90 2 um
[17] = MM55, replicate 3, read-out: IC90 3 um

Structure (SMILES): Nc1nc(F)nc2c1ncn2[C@@H]1O[C@H](CO)[C@@H](O)[C@@H]1O [MMV637413, Fludarabine, reference compound]
activity at 25 µM ([1]; 25 uM, replicate A, MM55, read-out: Percentage survival at 25um, 25 um A): 3.41%
activity at 100 µM ([1]; mean of replicates, MM55, read-out: Percentage survival at 100um, 100 uM mean): 3.82%
activity at 100 µM ([1]; replicate 1, MM55, read-out: Percentage survival at 100um, 100 uM A): 1.86%
activity at 100 µM ([1]; replicate 2, MM55, read-out: Percentage survival at 100um, 100 uM A): 1.98%
activity at 100 µM ([1]; replicate 3, MM55, read-out: Percentage survival at 100um, 100 uM A): 7.64%
activity at 25 µM ([1]; read-out: Percentage survival at 25um, 25 uM B): -4.01%
activity at 25 µM ([1]; read-out: Percentage survival at 25um, 25 uM C): 6.32%
activity at 25 µM ([1]; read-out: Percentage survival at 25um, 25 uM mean): 1.91%
Drug static or cidal [2]: Static
IC50 [2, 4]: 1.63 µM
IC90 ([2]; MM55, IC90, mean of replicates, read-out: IC90 mean): 8.89 µM
IC90 ([2]; MM55, IC90, replicate 1, read-out: IC90 1 um): 20.6 µM
IC90 ([2]; MM55, IC90, replicate 2, read-out: IC90 2 um): 1.28 µM
IC90 ([2]; MM55, IC90, replicate 3, read-out: IC90 3 um): 4.8 µM
IC50 [2, 5]: 1.8 µM
IC50 [2, 6]: 0.68 µM
IC50 [2, 7]: 2.4 µM
IC50 ([2]; Table 2, M. mycetomatis MM55, read-out: IC50): 1.63 µM
MIC50 ([3]; median MIC over ten M. mycetomatis isolates, no asterisk, read-out: MIC50): 16 µM (≈ 4.56 µg/mL)
MIC ([3]; M. mycetomatis isolate CBS247.48, read-out: MIC CBS247.48): 16 µM (≈ 4.56 µg/mL)
MIC ([3]; M. mycetomatis isolate MM14, read-out: MIC MM14): 16 µM (≈ 4.56 µg/mL)
MIC ([3]; M. mycetomatis isolate MM45, read-out: MIC MM45): > 16 µM
MIC ([3]; M. mycetomatis isolate MM55, read-out: MIC MM55): 16 µM (≈ 4.56 µg/mL)
MIC ([3]; M. mycetomatis isolate P1, read-out: MIC P1): > 16 µM
MIC ([3]; M. mycetomatis isolate ParijsAl1, read-out: MIC ParijsAl1): > 16 µM
MIC ([3]; M. mycetomatis isolate Peru72012, read-out: MIC Peru72012): > 16 µM
MIC ([3]; M. mycetomatis isolate So1, read-out: MIC So1): 16 µM (≈ 4.56 µg/mL)
MIC ([3]; M. mycetomatis isolate i1, read-out: MIC i1): > 16 µM
MIC ([3]; M. mycetomatis isolate i11, read-out: MIC i11): 16 µM (≈ 4.56 µg/mL)
MIC50 ([3]; over ten M. mycetomatis isolates, read-out: MIC50 mean): 16 µM (≈ 4.56 µg/mL)

IC50 [2, 4]: 12.4 µM
IC90 ([2]; MM55, mean of replicates, read-out: IC90 mean): 21.7 µM
IC50 [2, 5]: 3.2 µM
IC90 [2, 15]: 18 µM
IC50 [2, 6]: 15.9 µM
IC90 [2, 16]: 23.4 µM
IC50 [2, 7]: 18 µM
IC90 [2, 17]: 23.7 µM
Structure (SMILES): O=[N+]([O-])c1ccc2c(CCc3c[nH]c4ccccc34)c[nH]c2c1 [MMV1593539]
activity at 25 µM [1, 8]: 4.51%
activity at 25 µM [1, 9]: 2.73%
activity at 25 µM [1, 10]: 8.11%
activity at 25 µM [1, 11]: 2.7%
activity at 100 µM [1, 12]: 47.9%
activity at 100 µM [1, 13]: 0.0782%
Percent fungal survival at 100 µM [1]: 136%
activity at 100 µM [1, 14]: 7.7%
Drug static or cidal ([2]; M. mycetomatis): Cidal

IC50 [2, 4]: 11 µM
IC50 [2, 5]: 4.23 µM
IC90 [2, 15]: > 25 µM
IC50 [2, 6]: 16.5 µM
IC90 [2, 16]: 24 µM
IC50 [2, 7]: 12.2 µM
IC90 [2, 17]: 23.5 µM
Structure (SMILES): Nc1nnnn1CCOc1c2[nH]c3ccc(Cl)cc3c2cc2c1[nH]c1ccc(Cl)cc12 [MMV1633966]
activity at 25 µM [1, 8]: 3.05%
activity at 25 µM [1, 9]: 1.67%
activity at 25 µM [1, 10]: 3.75%
activity at 25 µM [1, 11]: 3.74%
activity at 100 µM [1, 12]: 3.34%
activity at 100 µM [1, 13]: 3.63%
Percent fungal survival at 100 µM [1]: 1.28%
activity at 100 µM [1, 14]: 5.11%
Drug static or cidal ([2]; M. mycetomatis): Cidal

IC50 ([2]; MM55, mean, read-out: IC50 mean): > 25 µM
IC90 ([2]; MM55, read-out: IC90 mean): > 25 µM
IC50 ([2]; MM55, replicate 1, read-out: IC50 1): > 25 µM
IC90 ([2]; MM55, replicate 1, read-out: IC90 1): > 25 µM
IC50 ([2]; MM55, replicate 2, read-out: IC50 2): > 25 µM
IC90 ([2]; MM55, replicate 2, read-out: IC90 2): > 25 µM
IC50 ([2]; MM55, replicate 3, read-out: IC50 3): > 25 µM
IC90 ([2]; MM55, replicate 3, read-out: IC90 3): > 25 µM
Structure (SMILES): CCOC(=O)Nc1cc(NC(C)CC(C)CN(CC)CC)c2nc(-c3ccccc3)c(-c3ccccc3)nc2n1 (centres unmarked) [MMV1633967]
activity at 25 µM ([1]; 25 uM, mean, read-out: Percentage survival at 25um, 25 uM mean): -1.71%
activity at 25 µM ([1]; 25 uM, replicate A, read-out: Percentage survival at 25um, 25 um A): -4.99%
activity at 25 µM ([1]; 25 uM, replicate B, read-out: Percentage survival at 25um, 25 uM B): 0.0169%
activity at 25 µM ([1]; 25 uM, replicate C, read-out: Percentage survival at 25um, 25 uM C): -0.146%
activity at 100 µM ([1]; mean, read-out: Percentage survival at 100um, 100 uM mean): 60.2%
activity at 100 µM ([1]; replicate (first column), read-out: Percentage survival at 100um, 100 uM A): 73.9%
activity at 100 µM ([1]; replicate (second column), read-out: Percentage survival at 100um, 100 uM A): 96.6%
activity at 100 µM ([1]; replicate (third column), read-out: Percentage survival at 100um, 100 uM A): 10.1%
Drug static or cidal [2]: Static
